Patent US20220251105A1, “METHODS OF TREATING A MK2-MEDIATED DISORDER” (Celgene CAR LLC, priority 2019, published 2022)

What was measured:
[1] = plasma exposure in HLA-B27/Huβ2m rats; settings: 10 mg/kg daily oral (comparator)
Excerpt: In each disease model, steady-state pharmacokinetics were characterized.

[2] = test system: Ankylosing spondylitis in HLA B27 Tg rat; test: HLA-B27/Huβ2m transgenic rat model of ankylosing spondylitis
Excerpt: Etanercept and tofactinib (Balagué et al. Profiling of dihydroorotate dehydrogenase, p38 and JAK inhibitors in the rat adjuvant-induced arthritis model: a translational study. Br J Pharmacol. 2012 June; 166(4):1320-32) were included in this rat study as comparator molecules.

Row | Compound | AUCLST [1] [ng·h/mL] | Paw Swelling Inhibition (%) ([2]; 10 mg/kg daily oral gavage (comparator)) | Paw Swelling Inhibition (%) ([2]; 10 mg/kg twice weekly subcutaneous injection (comparator))
1 | C[C@@H]1CCN(C(=O)CC#N)C[C@@H]1N(C)c1ncnc2[nH]ccc12 [Tofacitinib, tofacitinib, reference compound] | 6540 | 47 | –
2 | Etanercept | – | – | 42
